Reference: ChEMBL document CHEMBL5606459, “ASAP - WNV NS2B-NS3 protease fluorescence single point” (2024)

Assays:
NS3 (West Nile virus) [1] = molecular target: T1, NS3 (West Nile virus) (UniProt K4FQI5); assay: (§1) Functional biochemical assay to identify treatments for viral infectious disease that targets West Nile NS2B-NS3 protease. Utilizing a direct enzyme activity measurement method, reading the fluorescence intensity is used to characterize the relative potency of inhibitors as % inhibition. Synthetic construct has been made based on West Nile virus (strain NY-99) by Centre for Medicines Discovery, University of Oxford, and the assay has been performed by Stanford University.The protocol is publicly available: dx.doi.org/10.17504/protocols.io.ewov1dy37vr2/v1; settings: Concentration 50.0 uM, Number of replicates 1.0
T1 sequence (whole entry): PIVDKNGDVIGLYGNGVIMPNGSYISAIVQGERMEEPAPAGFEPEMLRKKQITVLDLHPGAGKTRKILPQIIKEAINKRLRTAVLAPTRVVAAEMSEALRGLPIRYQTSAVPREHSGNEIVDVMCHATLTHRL

NS3 (West Nile virus) [2] = molecular target: T1, NS3 (West Nile virus); assay: as §1, with “Weizmann Institute of Science.The” for “Stanford University.The”, “dx.doi.org/10.17504/protocols.io.q26g7yebkgwz/v3” for “dx.doi.org/10.17504/protocols.io.ewov1dy37vr2/v1”

| Compound | inhibition (NS3 (West Nile virus) [1]) [%] | also measured |
| --- | --- | --- |
| Cc1c(C=O)c2ccccn2c1C(=O)c1ccncc1 | 63.6 | – |
| Cc1c(C=O)c2ccccn2c1C#N | 49.8 | – |
| O=Cc1ccc(N2CCCCCC2)cc1 | 57 | – |
| Nc1ccc2ccc(B(O)O)cc2c1 | -5.6 | – |
| O=Cc1ccc(N2CCC(C(=O)O)CC2)cc1 | 69.5 | – |
| Cc1nc(C=O)c2ccccn12 | 33.8 | – |
| CC[C@H]1CO[C@H](C)CN1c1ccc(C=O)cn1 | 61.8 | – |
| CN(C)c1ccc(C=C(C#N)C(N)=O)cc1 | 38.2 | – |
| O=Cc1nc(-c2ccccc2Cl)n2ccccc12 | 41 | – |
| N=C(N)NCCC[C@H](NC(=O)c1nccs1)C(=O)N[C@@H](CCCCN)C(=O)N[C@@H](C(N)=O)c1ccc(OCc2ccc(C(F)(F)F)cc2)cc1 | – | inhibition (NS3 (West Nile virus) [2]; Concentration 50.0 uM, Number of replicates 2.0, Standard deviation 2.0262748168953313 %): 80.2%; inhibition (NS3 (West Nile virus) [2]; Concentration 100.0 uM, Number of replicates 2.0, Standard deviation 12.945380917885936 %): 119% |
| O=Cc1ccc(N2CCCCC2)cc1 | 36.7 | – |
| O=Cc1ccc(N2CCC(C(=O)O)CC2)o1 | 65.4 | – |
| Cc1cc(NS(=O)(=O)c2ccc(S(=O)(=O)F)cc2)c[nH]c1=O | 14.8 | – |
| O=C1c2c(O)ccc([N+](=O)[O-])c2C(=O)c2c([N+](=O)[O-])ccc(O)c21 | – | inhibition (NS3 (West Nile virus) [2]; Concentration 50.0 uM, Number of replicates 2.0, Standard deviation 6.952329816266579 %): 4.86%; inhibition (NS3 (West Nile virus) [2]; Concentration 100.0 uM, Number of replicates 2.0, Standard deviation 1.865400633304037 %): 22.8% |
